Source: US20240189318A1, “THERAPEUTIC REGIMENS OF AN INHIBITOR OF THE ENZYMATIC ACTIVITY OF BRG1 AND BRM” (FOGHORN THERAPEUTICS INC., priority 2021, published 2024)
Where two headings read alike, the source gives them in different places.

Key:
CYP2D6 = CYP2D6 (Homo sapiens, UniProt P10635); experiment: CYP enzyme inhibition in pooled human liver microsomes, CYP2D6; conditions: for inhibition at 30 µM: human, microsomes, Enzyme activity (% inhibition), CYP2D6, probe Dextromethorphan
[1] = tested on: Uveal melanoma cell lines, prostate cancer cells, acute leukemia cells, histocytic lymphoma cells; experiment: 3-day growth inhibition, all cell lines of Table 6; type: cell-based; conditions: 3 days
BCRP [2] = target: T1, BCRP (Homo sapiens, UniProt Q9UNQ0); experiment: Bidirectional transport in MDCK-II cells expressing BCRP; type: in vitro ADME
T1 construct: expressed in transfected cells; host or cells: MDCK-II
T1 sequence (Q9UNQ0 1-655): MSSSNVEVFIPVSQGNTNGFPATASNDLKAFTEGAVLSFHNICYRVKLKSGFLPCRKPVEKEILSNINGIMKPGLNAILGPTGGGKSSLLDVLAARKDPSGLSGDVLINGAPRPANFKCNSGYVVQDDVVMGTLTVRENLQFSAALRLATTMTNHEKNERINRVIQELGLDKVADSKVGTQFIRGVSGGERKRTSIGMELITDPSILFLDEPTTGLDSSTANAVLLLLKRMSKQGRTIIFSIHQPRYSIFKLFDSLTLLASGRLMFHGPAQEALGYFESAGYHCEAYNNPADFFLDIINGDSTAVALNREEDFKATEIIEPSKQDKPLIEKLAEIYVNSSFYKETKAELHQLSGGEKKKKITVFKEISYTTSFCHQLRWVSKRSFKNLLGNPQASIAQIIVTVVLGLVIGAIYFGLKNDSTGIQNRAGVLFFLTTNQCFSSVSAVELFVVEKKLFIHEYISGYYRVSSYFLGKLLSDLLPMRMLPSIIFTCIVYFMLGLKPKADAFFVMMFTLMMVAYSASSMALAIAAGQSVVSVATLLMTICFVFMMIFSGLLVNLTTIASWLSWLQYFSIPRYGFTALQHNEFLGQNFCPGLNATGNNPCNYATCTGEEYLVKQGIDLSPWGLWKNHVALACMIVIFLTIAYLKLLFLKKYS

BCRP [3] = target: T1, BCRP; experiment: Transporter inhibition in MDCK-II cells, BCRP; type: in vitro ADME; conditions: for IC50: probe prazosin 2 μM
CYP2b1 mRNA = experiment: CYP mRNA expression in cultured rat hepatocytes, CYP2b1; type: in vitro ADME; conditions: 0.3 to 100 nM
CYP2C19 mRNA = experiment: CYP mRNA level in cultured human hepatocytes, CYP2C19; type: in vitro ADME; conditions: tested concentrations up to 50 nM
249 other ATPases = experiment: Additional profiling: binding to other ATPases in cells
CYP1A2 = target: T2, CYP1A2 (Homo sapiens, UniProt P05177); experiment: CYP enzyme inhibition in pooled human liver microsomes, CYP1A2; conditions: for inhibition at 30 µM: human, microsomes, Enzyme activity (% inhibition), CYP1A2, probe Phenacetin
T2 sequence (P05177 1-516): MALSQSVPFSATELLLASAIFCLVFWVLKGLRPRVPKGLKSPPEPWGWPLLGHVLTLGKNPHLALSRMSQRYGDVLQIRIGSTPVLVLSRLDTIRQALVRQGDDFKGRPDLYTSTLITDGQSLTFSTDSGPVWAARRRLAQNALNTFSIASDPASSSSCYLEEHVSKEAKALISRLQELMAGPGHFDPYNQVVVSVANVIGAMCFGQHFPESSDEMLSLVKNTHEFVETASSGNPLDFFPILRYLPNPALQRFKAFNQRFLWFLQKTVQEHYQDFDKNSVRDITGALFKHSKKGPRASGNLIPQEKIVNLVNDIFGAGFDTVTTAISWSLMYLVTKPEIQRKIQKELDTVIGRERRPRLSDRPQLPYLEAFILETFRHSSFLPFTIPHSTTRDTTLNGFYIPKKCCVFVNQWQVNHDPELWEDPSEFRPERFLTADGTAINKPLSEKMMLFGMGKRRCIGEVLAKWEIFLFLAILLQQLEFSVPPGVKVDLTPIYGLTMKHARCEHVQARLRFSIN

92-1 cells = experiment: 3-day cell proliferation assay (CellTiter-Glo); conditions: Homo sapiens, 72 h, read-out: mean IC50, cell proliferation
CYP3A4/5 = experiment: CYP enzyme inhibition in pooled human liver microsomes, CYP3A4/5; conditions: for inhibition at 10 µM / inhibition at 30 µM: Enzyme activity (% inhibition), CYP3A4/5
[4] = Bidirectional transport in MDCK control cells (passive permeability); type: in vitro ADME; conditions: dog; for Papp B→A at 1 μM / Papp B→A at 50 μM / Papp A→B at 1 μM / Papp A→B at 10 μM / Papp B→A at 10 μM / Papp A→B at 50 μM: MDCK; for Papp A→B at 10 μM / Papp B→A at 10 μM: 10 μM compound of formula (I)
MDCK control cells = experiment: as above; type: in vitro ADME; conditions: MDCK control cells
CYP2C9 = CYP2C9 (Homo sapiens, UniProt P11712); experiment: CYP enzyme inhibition in pooled human liver microsomes, CYP2C9; conditions: for inhibition at 30 µM: human, microsomes, Enzyme activity (% inhibition), CYP2C9, probe Diclofenac
CYP2C9, sequence (P11712 whole entry): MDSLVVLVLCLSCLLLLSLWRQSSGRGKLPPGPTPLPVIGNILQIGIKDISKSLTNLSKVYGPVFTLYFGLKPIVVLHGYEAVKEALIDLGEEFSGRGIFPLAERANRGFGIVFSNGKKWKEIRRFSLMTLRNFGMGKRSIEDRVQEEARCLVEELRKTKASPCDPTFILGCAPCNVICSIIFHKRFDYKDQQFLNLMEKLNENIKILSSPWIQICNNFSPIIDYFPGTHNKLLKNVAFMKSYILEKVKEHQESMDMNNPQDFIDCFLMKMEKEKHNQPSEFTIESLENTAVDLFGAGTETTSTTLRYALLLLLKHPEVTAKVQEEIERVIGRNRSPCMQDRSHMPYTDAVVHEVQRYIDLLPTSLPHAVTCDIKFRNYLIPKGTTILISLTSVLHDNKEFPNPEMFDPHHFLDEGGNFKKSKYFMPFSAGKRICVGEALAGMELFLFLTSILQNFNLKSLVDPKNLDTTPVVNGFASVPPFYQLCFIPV

[5] = PHLM, concentrations up to 30 μM
[6] = 30 Minutes Pre-incubation with NADPH, PHLM
[7] = 30 Minutes Pre-incubation without NADPH, PHLM
[8] = human, read-out: Papp A→B, in transporter cells
[9] = human, read-out: Papp B→A, in transporter cells
[10] = human, pooled human liver microsomes, probe midazolam (1′-hydroxylation), 30 Minutes Pre-incubation with NADPH, probe Midazolam, PHLM
[11] = human, pooled human liver microsomes, probe midazolam (1′-hydroxylation), 30 Minutes Pre-incubation without NADPH, probe Midazolam, PHLM
[12] = human, pooled human liver microsomes, probe midazolam (1′-hydroxylation), No Pre-incubation, probe Midazolam, PHLM
[13] = human, pooled human liver microsomes, probe testosterone (6β-hydroxylation), 30 Minutes Pre-incubation with NADPH, probe Testosterone, PHLM
[14] = human, pooled human liver microsomes, probe testosterone (6β-hydroxylation), 30 Minutes Pre-incubation without NADPH, probe Testosterone, PHLM
[15] = human, pooled human liver microsomes, probe testosterone (6β-hydroxylation), No Pre-incubation, probe Testosterone, PHLM
[16] = BCRP assay, 50 μM compound of formula (I)
[17] = P-gp assay, 1 μM compound of formula (I)

CYP2D6, sequence (P10635 whole entry): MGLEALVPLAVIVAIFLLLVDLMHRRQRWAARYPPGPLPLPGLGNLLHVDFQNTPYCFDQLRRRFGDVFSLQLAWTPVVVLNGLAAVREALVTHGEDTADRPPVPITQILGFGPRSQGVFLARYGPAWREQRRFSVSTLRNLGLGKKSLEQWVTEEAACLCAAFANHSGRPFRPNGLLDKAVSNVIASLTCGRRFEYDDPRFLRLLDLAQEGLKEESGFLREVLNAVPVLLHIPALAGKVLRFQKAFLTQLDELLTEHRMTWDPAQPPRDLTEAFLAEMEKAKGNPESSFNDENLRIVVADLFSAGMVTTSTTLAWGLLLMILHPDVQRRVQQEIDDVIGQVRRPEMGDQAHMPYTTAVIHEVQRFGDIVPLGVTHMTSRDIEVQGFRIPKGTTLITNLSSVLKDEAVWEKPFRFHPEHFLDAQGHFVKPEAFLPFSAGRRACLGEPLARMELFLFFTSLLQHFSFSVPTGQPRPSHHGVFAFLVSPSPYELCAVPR

For `COC[C@H](NC(=O)c1ccn(S(C)(=O)=O)c1)C(=O)Nc1nc(-c2cccc(N3C[C@@H](C)O[C@@H](C)C3)n2)cs1` [compound of formula (I), N-((S)-1-((4-(6-(cis-2,6-dimethylmorpholino)pyridin-2-yl)thiazol-2-yl)amino)-3-methoxy-1-oxopropan-2-yl)-1-(methylsulfonyl)-1H-pyrrole-3-carboxamide], the IC50 (CYP2D6) was greater than 30 µM, the “direct inhibitory activity (% inhibition) toward CYP2D6” value (CYP2D6; [5]) was less than 50% and the inhibition at 30 µM (CYP2D6; [6]) was 9.6%. The inhibition at 30 µM (CYP2D6; [7]) was 11.5%, the inhibition at 30 µM (CYP2D6; No Pre-incubation, PHLM) was 13.2% and the “growth inhibition in all the cell lines” value [1] was “potent growth inhibition”. For the same compound, the BCRP substrate status (BCRP [2]; MDCK-II cells expressing BCRP) was “substrate”, the Papp A→B at 1 μM (BCRP [2]; [8]) was 6.15 ×10⁻⁶ cm/s and the Papp A→B at 10 μM (BCRP [2]; [8]) was 16.5 ×10⁻⁶ cm/s. For the same compound, the Papp A→B at 50 μM (BCRP [2]; [8]) was 22.4 ×10⁻⁶ cm/s, the Papp B→A at 1 μM (BCRP [2]; [9]) was 24.3 ×10⁻⁶ cm/s and the Papp B→A at 10 μM (BCRP [2]; [9]) was 25.2 ×10⁻⁶ cm/s. For the same compound, the Papp B→A at 50 μM (BCRP [2]; [9]) was 18.5 ×10⁻⁶ cm/s, the IC50 (BCRP [3]; BCRP in MDCK-II cells, read-out: Estimated IC50 using nominal concentrations) was 10.1 µM and the IC50 (BCRP [3]; BCRP, corrected, read-out: IC50 corrected for non-specific binding) was 2.38 µM. The “R-value for BCRP inhibition in the gut” value (BCRP [3]; FDA guidance 2020, human dose of 300 mg) was greater than 10, the “concentrations at which CYP2b1 mRNA expression was decreased ≥50%” value (CYP2b1 mRNA) was no less than 10 nM and the “effect on mRNA expression of CYP2C19” value (CYP2C19 mRNA) was “minimal effect”. The “binding to 249 other ATPases in cells” value (249 other ATPases) was “little binding”, the IC50 (CYP1A2) was greater than 30 µM and the “direct inhibitory activity (% inhibition) toward CYP1A2” value (CYP1A2; [5]) was less than 50%. It also gave an inhibition at 30 µM (CYP1A2; [6]) of 11.8%, an inhibition at 30 µM (CYP1A2; [7]) of 8.5% and an inhibition at 30 µM (CYP1A2; No Pre-incubation, PHLM) of 11.4%. For the same compound, the IC50 (92-1 cells) was 0.00113 µM, the “time-dependent inhibition of CYP3A4/5” value (CYP3A4/5; PHLM) was “weak time-dependent inhibitor” and the “direct inhibitory activity (% inhibition) toward CYP3A” value (CYP3A4/5; [5]) was less than 50%. It also gave an IC50 (CYP3A4/5; human, pooled human liver microsomes) greater than 30 µM, an inhibition at 30 min, 10 µM (CYP3A4/5; human, pooled human liver microsomes, increase in CYP3A4/5 inhibition by preincubation, concentrations of ≤10 μM) of less than 20% and an inhibition at 10 µM (CYP3A4/5; [10]) of 25.3%. It also gave an inhibition at 30 µM (CYP3A4/5; [10]) of 40.2%, an inhibition at 10 µM (CYP3A4/5; [11]) of 6.5% and an inhibition at 30 µM (CYP3A4/5; [11]) of -1%. For the same compound, the inhibition at 10 µM (CYP3A4/5; [12]) was 18.2%, the inhibition at 30 µM (CYP3A4/5; [12]) was 13.6% and the inhibition at 10 µM (CYP3A4/5; [13]) was 27.4%. The inhibition at 30 µM (CYP3A4/5; [13]) was 49.3%, the inhibition at 10 µM (CYP3A4/5; [14]) was 10.5% and the inhibition at 30 µM (CYP3A4/5; [14]) was 20.8%. It also gave an inhibition at 10 µM (CYP3A4/5; [15]) of 9.7%, an inhibition at 30 µM (CYP3A4/5; [15]) of 18.4% and a Papp B→A at 1 μM [4] of 18.2 ×10⁻⁶ cm/s. It also gave a Papp B→A at 50 μM [4] of 18.5 ×10⁻⁶ cm/s, a Papp A→B at 1 μM ([4]; BCRP assay, 1 μM compound of formula (I)) of 26 ×10⁻⁶ cm/s and a Papp A→B at 10 μM ([4]; BCRP assay) of 25.4 ×10⁻⁶ cm/s. It also gave a Papp B→A at 10 μM ([4]; BCRP assay) of 20.9 ×10⁻⁶ cm/s, a Papp A→B at 50 μM [4, 16] of 21.3 ×10⁻⁶ cm/s and a Papp B→A at 50 μM [4, 16] of 19.2 ×10⁻⁶ cm/s. For the same compound, the Papp A→B at 1 μM [4, 17] was 28.8 ×10⁻⁶ cm/s, the Papp B→A at 1 μM [4, 17] was 21 ×10⁻⁶ cm/s and the Papp A→B at 10 μM ([4]; P-gp assay) was 31 ×10⁻⁶ cm/s. For the same compound, the Papp B→A at 10 μM ([4]; P-gp assay) was 23.6 ×10⁻⁶ cm/s, the Papp A→B at 50 μM ([4]; P-gp assay, 50 μM compound of formula (I)) was 25.5 ×10⁻⁶ cm/s and the Papp ([4]; MDCK control cells, read-out: apparent permeability coefficient (Papp) (B→A) or Papp (A→B)) was no less than 15 ×10⁻⁶ cm/s. The passive permeability (MDCK control cells) was “high passive permeability”, the IC50 (CYP2C9) was greater than 30 µM and the “direct inhibitory activity (% inhibition) toward CYP2C9” value (CYP2C9; [5]) was less than 50%. For the same compound, the inhibition at 30 µM (CYP2C9; [6]) was 43.5%, the inhibition at 30 µM (CYP2C9; [7]) was 29.5% and the inhibition at 30 µM (CYP2C9; No Pre-incubation, PHLM) was 47.1%.
